Active and inactive are the calls of the source. The rule behind the calls is not given here.

Test [1] has as its system MDA-MB-231. Briefly: Antiproliferative activity against human MDA-MB-231 cells assessed as reduction in cell viability at >=100 uM incubated for 5 days by PrestoBlue reagent based glo-max fluorescence assay. It counts as functional. As to conditions: time 5.0 day.
Test [2] has as its system A549. Briefly: Antiproliferative activity against human A549 cells assessed as reduction in cell viability at >=100 uM incubated for 5 days by PrestoBlue reagent based glo-max fluorescence assay. The class given is functional. As to conditions: time 5.0 day.
Test [3] has as its system MDA-MB-231. The test is described as follows: Antiproliferative activity against human MDA-MB-231 cells assessed as reduction in cell viability incubated for 5 days by PrestoBlue reagent based glo-max fluorescence assay. It counts as functional. Conditions: MDA-MB-231, 120 h.
Test [4] deals with A549. Briefly: Antiproliferative activity against human A549 cells assessed as reduction in cell viability incubated for 5 days by PrestoBlue reagent based glo-max fluorescence assay. Conditions: A549, 120 h. The class given is functional.
Test [5] relates to MDA-MB-231. Briefly: Antiproliferative activity against human MDA-MB-231 cells assessed as reduction in cell viability at <=70 uM incubated for 5 days by PrestoBlue reagent based glo-max fluorescence assay. The class given is functional. As to conditions: time 5.0 day.
The target in test [6] is CD44 antigen (Homo sapiens) (UniProt P16070). The test is described as follows: Displacement of HA-FITC from CD44 in human MDA-MB-231 cells assessed as decrease in fluorescent intensity at 120 ug/ml incubated for 45 mins by competitive binding assay based flow cytometric analysis. It counts as cell-based. Conditions: dose 120.0 µg/ml. (In general: In flow cytometry, cells or beads pass a laser one at a time.)

In test [7] the test system is MDA-MB-231. The test is described as follows: Antiproliferative activity against human MDA-MB-231 cells assessed as reduction in cell viability incubated for 5 days pre-incubated with anti-CD44 antibody IM7 by PrestoBlue reagent based glo-max fluorescence assay relative to control. Conditions: time 5 day. It counts as functional.
Test [8] has as its system MDA-MB-231. Briefly: Antiproliferative activity against human MDA-MB-231 cells assessed as fold change in cell viability incubated for 5 days by PrestoBlue reagent based glo-max fluorescence assay. It counts as functional. Conditions: time 5 day.
The subject of test [9] is MDA-MB-231. The test is described as follows: Antiproliferative activity against human MDA-MB-231 cells assessed as change in spheroid integrity at 1 uM incubated for 5 days by PrestoBlue reagent based microscopic analysis. It counts as functional, cell-based. As to conditions: time 5.0 day.
Test [10] relates to MDA-MB-231. The test is described as follows: Antiproliferative activity against human MDA-MB-231 cells assessed as increase in dead cell in spheroid at 1 uM incubated for 5 days by PrestoBlue reagent based microscopic analysis. It counts as functional. Conditions: time 5.0 day.
The test system of test [11] is MDA-MB-231. The test is described as follows: Antiproliferative activity against human MDA-MB-231 cells assessed as spheroid disaggregation at 100 uM incubated for 5 days by PrestoBlue reagent based microscopic analysis. The class given is functional, cell-based. Conditions: time 5.0 day.
In test [12] the test system is MDA-MB-231. Briefly: Antiproliferative activity against human MDA-MB-231 cells assessed as decrease in viable cells incubated for 5 days by PrestoBlue reagent based glo-max fluorescence assay. The class given is functional, cell-based. As to conditions: time 5.0 day.

Sequence of CD44 antigen (Homo sapiens) (P16070 whole entry): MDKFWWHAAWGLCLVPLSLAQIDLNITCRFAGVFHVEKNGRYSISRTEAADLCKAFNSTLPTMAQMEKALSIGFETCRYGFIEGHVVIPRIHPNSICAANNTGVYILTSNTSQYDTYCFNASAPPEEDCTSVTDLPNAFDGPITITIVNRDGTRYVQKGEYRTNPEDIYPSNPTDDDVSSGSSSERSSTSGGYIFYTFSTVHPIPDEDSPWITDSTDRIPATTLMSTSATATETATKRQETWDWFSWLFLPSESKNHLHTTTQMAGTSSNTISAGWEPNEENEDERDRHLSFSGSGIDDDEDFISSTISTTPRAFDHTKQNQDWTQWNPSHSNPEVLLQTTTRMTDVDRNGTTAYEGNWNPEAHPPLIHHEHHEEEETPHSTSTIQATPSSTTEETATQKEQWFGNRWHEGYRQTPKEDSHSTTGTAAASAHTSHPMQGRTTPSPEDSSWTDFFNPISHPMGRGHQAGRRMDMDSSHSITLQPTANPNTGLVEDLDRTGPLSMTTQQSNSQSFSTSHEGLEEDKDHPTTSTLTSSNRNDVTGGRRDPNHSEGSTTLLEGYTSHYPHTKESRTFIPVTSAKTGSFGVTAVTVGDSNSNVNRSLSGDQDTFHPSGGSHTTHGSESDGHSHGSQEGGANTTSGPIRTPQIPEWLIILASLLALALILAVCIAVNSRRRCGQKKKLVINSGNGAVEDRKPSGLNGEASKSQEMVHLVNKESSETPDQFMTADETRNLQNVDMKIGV

With `COc1cc2c(cc1OC)CN(S(=O)(=O)c1ccc([N+](=O)[O-])cc1)CC2`, the outcome in the test on MDA-MB-231 [1] and with A549 [2] was inactive.

Consider `Nc1cccc2c1CCN(Cc1ccc(Br)cc1)C2`, for which the results for the concentration for a half-maximal effect (EC50) with MDA-MB-231 [3] and in the test on A549 [4] were 77.1 µM and 37.9 µM, respectively.

For `CC(=O)CCN1CCc2ccccc2C1`, the concentration for a half-maximal effect (EC50) (as a rule, the concentration giving half of the maximal effect) in the test on MDA-MB-231 [3] amounted to 8 µM.

Consider `COc1cc(CN2CCc3c(N)cccc3C2)cc(OC)c1OC`, for which the concentration giving a half-maximal response (EC50) in the test with MDA-MB-231 [3] came to 2.31 µM; in the test with A549 [4], 3.48 µM. The outcome (in the test on MDA-MB-231 [5]; in test [6]) was Active. Moreover, the Activity in the test on MDA-MB-231 [7] stood at 13%.

Regarding `FC(F)(F)c1ccc(CN2CCc3ccccc3C2)cc1`, the values for the EC50 in the test with MDA-MB-231 [3] and in the test with A549 [4] were 52.1 µM and 34.7 µM, respectively.

Turning to `COc1cc2c(cc1OC)CN(S(=O)(=O)c1ccc(C)cc1)CC2`, the outcome in the test with MDA-MB-231 [1] and with A549 [2] was inactive.

Consider `Nc1cccc2c1CCN(S(=O)(=O)c1ccc([N+](=O)[O-])cc1)C2`, for which the result in the test on MDA-MB-231 [1] and with A549 [2] was inactive.

Regarding `Nc1cccc2c1CN(Cc1ccc(C(F)(F)F)cc1)CC2`, the concentration giving a half-maximal response (EC50) in the test on MDA-MB-231 [3] was determined as 52.1 µM; with A549 [4], 34.7 µM.

Consider `COc1cc(CN2CCc3c(O)cccc3C2)cc(OC)c1OC`, for which the EC50 with MDA-MB-231 [3] was 0.59 µM. Besides, the outcome (in [6]; with MDA-MB-231 [9]; with MDA-MB-231 [10]; with MDA-MB-231 [11]) was Active. Further, the “fold change (FC)” value in the test with MDA-MB-231 [8] turned out to be 4. Further, the Activity is 21% in the test on MDA-MB-231 [7] and “Dose-Dependent Effect” in the test with MDA-MB-231 [12].

For the compound `Cc1ccc(S(=O)(=O)N2CCc3cccc(N)c3C2)cc1`, the result in the test with MDA-MB-231 [1] and with A549 [2] was inactive.

For the compound `COc1cc2c(cc1OC)CN(Cc1ccc(C(F)(F)F)cc1)CC2`, the half-maximal effective concentration (EC50) was 52.1 µM in the test on MDA-MB-231 [3] and 34.7 µM in the test on A549 [4].

For `COc1cc(CN2CCc3c(Br)cccc3C2)cc(OC)c1OC`, the EC50 with MDA-MB-231 [3] stood at 1.77 µM. The result in [6] was Active. In addition, the “fold change (FC)” value in the test with MDA-MB-231 [8] turned out to be 1.3. Besides, the Activity with MDA-MB-231 [7] worked out at 24%.

For the compound `Nc1cccc2c1CCN(Cc1ccc(C(F)(F)F)cc1)C2`, the results for the EC50 with MDA-MB-231 [3] and with A549 [4] were 52.1 µM and 34.7 µM, respectively.

For the compound `FC(F)(F)c1ccc(CNc2cccc3c2CN(Cc2ccc(C(F)(F)F)cc2)CC3)cc1`, the values for the concentration for a half-maximal effect (EC50) with MDA-MB-231 [3] and with A549 [4] were 31.5 µM and 37 µM, respectively.

Consider `O=[N+]([O-])c1ccc(S(=O)(=O)N2CCc3ccccc3C2)cc1`, for which the EC50 in the test on MDA-MB-231 [3] was 61.8 µM. Moreover, the result with A549 [2] was inactive.

Take `COc1cc2c(cc1OC)CN(Cc1cc(OC)c(OC)c(OC)c1)CC2`: the EC50 in the test with MDA-MB-231 [3] is 70.3 µM; with A549 [4], 77.7 µM. Moreover, the outcome in the test with MDA-MB-231 [5] was Active.

`COc1cc(CN2CCc3cccc(N)c3C2)cc(OC)c1OC`: the EC50 with MDA-MB-231 [3] was determined as 57.4 µM; in the test on A549 [4], 72.4 µM. Further, in the test with MDA-MB-231 [5], the outcome was Active.

In the case of `Cc1ccc(S(=O)(=O)N2CCc3ccccc3C2)cc1`, the outcome with MDA-MB-231 [1] and with A549 [2] was inactive.

As for `Nc1cccc2c1CN(Cc1ccc(Br)cc1)CC2`, the values for the concentration for a half-maximal effect (EC50) in the test with MDA-MB-231 [3] and with A549 [4] were 77.1 µM and 37.9 µM, respectively.

As to `COc1cc2c(cc1OC)CN(Cc1ccc(Br)cc1)CC2`, the concentration giving a half-maximal response (EC50) in the test with MDA-MB-231 [3] is 77.1 µM; with A549 [4], 37.9 µM.

For the compound `Cc1ccc(S(=O)(=O)N2CCc3c(N)cccc3C2)cc1`, the result with MDA-MB-231 [1] and with A549 [2] was inactive.

Regarding `COc1cc(CN2CCc3ccccc3C2)cc(OC)c1OC`, the EC50 in the test on MDA-MB-231 [3] was 19.8 µM; in the test with A549 [4] it was 48.2 µM. Besides, the outcome in the test on MDA-MB-231 [5] was Active.

Take `Nc1cccc2c1CN(S(=O)(=O)c1ccc([N+](=O)[O-])cc1)CC2`: the result in the test on MDA-MB-231 [1] and in the test on A549 [2] was inactive.

For `Brc1ccc(CN2CCc3ccccc3C2)cc1`, the EC50 in the test with MDA-MB-231 [3] came to 77.1 µM; in the test with A549 [4] it was 37.9 µM.
